Results from patent publication US20240269128A1, “COMPOUNDS FOR TREATING OR PREVENTING ALZHEIMER'S DISEASE” (THE UNITED STATES OF AMERICA, as represented by the …, priority 2021, published 2024).

Assays:
[1] = system: hippocampal CA1 synapses of APP/PS1 mice; assay: Late long-term potentiation, field recordings in hippocampal slices; parameters: species or system mouse; conditions: for impaired late-LTP: APP/PS1 slices
[2] = system: 5xFAD mice; assay: Plasma NfL in 5xFAD mice (NF-light ELISA); format: in vivo, mouse; conditions: compared to saline-treated transgenic mice
Experimental: HCQ nano (poly(L-lysine succinylated)-HCQ, or PLS-HCQ) preparation: 2.5 mL of saline were added to each vial of lyophilized material on each dose day and vortexed briefly to mix. Fresh vials were prepared daily. Solution was pale yellow in color and was protecedt from light. Remaining material was discardedafter animals were successfully dosed each day. […] 100 mg/kg, i.p. injection 10 μL/g b.w.
TUDCA preparation: Dissolved in saline; treatment dosage 500 mg/kg; i.p. injection 10 μL/g b.w.
Animal management: Animals were housed in individual ventilated cages on standardized rodent bedding supplied by Rettenmaier. Each cage contained a maximum of five mice. The temperature in the keeping room was maintained between 20 to 24° C. and the relative humidity was maintained between 45 to 65%. Animals were housed under a constant light-cycle (12 hours light/dark). […]
The NF-light® (Neurofilament-light) ELISA 10-7001 CE from UmanDiagnostics was used for analysis. The following samples were analyzed: terminal CSF, terminal blood plasma as well as all 4 timepoints from the in vivo bleedings from 6 animals per groups (3 groups; 18 animals, 108 samples in total). Samples were diluted (1:3 for plasma, 1:35 for CSF) in assay buffer and analyzed according to the manufacturers protocol. CSF and in vivo samples are analyzed in single replicates only, due to limited sample volume. […]

[3] = WT and APP/PS1 before and after HCQ

Row | Compound | impaired late-LTP ([1]; 25 μM HCQ sulphate, bath-applied 60 min) | impaired late-LTP ([1]; 50 μM HCQ sulphate) | input-output (I/O) curves [1, 3] | paired pulse ratio (PPR) [1, 3] | L-LTP in wild type slices ([1]; wild type mice, 50 μM HCQ, vs untreated wild type) | peak in plasma NfL levels ([2]; 100 mg/kg i.p.) | LTP in APP/PS1 mice ([1]; 100 μM TUDCA) | peak plasma NfL levels ([2]; 500 mg/kg i.p.)
1 | CCN(CCO)CCCC(C)Nc1ccnc2cc(Cl)ccc12 (centres unmarked) [HCQ, hydroxychloroquine] | partially rescued | fully rescued | did not show any significant differences | did not show a significant difference | does not alter L-LTP | partially lowered |  | 
2 | C[C@H](CCC(=O)NCCS(=O)(=O)O)[C@H]1CC[C@H]2[C@@H]3[C@@H](O)C[C@@H]4C[C@H](O)CC[C@]4(C)[C@H]3CC[C@]12C [TUDCA, tauroursodeoxycholic acid] |  |  |  |  |  |  | no longer induced LTP | partially lowered
